PubChem BioAssay (NCI)
Where “and” joins values, the source holds several entries; their conditions need not be identical. Identical values can stand only once.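 Protocol summary: plate cells (96-well), add compound at 5 concentrations, incubate 48 h, interpolate endpoints linearly. GI50 = concentration required for 50% inhibition of growth. TGI is the concentration that stops growth completely.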

Experiments:
Assay in all cases: NCI-60 cell line screen, 48 h; in the data active = GI50 below about 0.43 µM; inactive = the rest
[1] = system: CAKI-1 renal
[2] = system: NCI-H522 lung
[3] = system: 786-0 renal
[4] = system: UACC-62 melanoma
[5] = system: SW-620 colon
[6] = system: SK-MEL-5 melanoma
[7] = system: IGROV1 ovarian
[8] = system: NCI-H226 lung
[9] = system: UACC-257 melanoma
[10] = system: MDA-MB-231 breast
[11] = system: MDA-MB-435
[12] = system: UO-31 renal
[13] = system: SF-295 CNS
[14] = system: MOLT-4 leukemia
[15] = system: K-562 leukemia
[16] = system: OVCAR-5 ovarian
[17] = system: HL-60(TB) leukemia
[18] = system: HCT-15 colon
[19] = system: NCI/ADR-RES ovarian
[20] = system: ACHN renal
[21] = system: SNB-75 CNS
[22] = system: SF-268 CNS
[23] = system: SK-OV-3 ovarian
[24] = system: TK-10 renal
[25] = system: NCI-H23 lung
[26] = system: SR leukemia
[27] = system: MALME-3M melanoma
[28] = system: T-47D breast
[29] = system: SK-MEL-2 melanoma
[30] = system: SF-539 CNS
[31] = system: SK-MEL-28 melanoma
[32] = system: OVCAR-4 ovarian
[33] = system: COLO 205 colon
[34] = system: CCRF-CEM leukemia
[35] = system: NCI-H460 lung
[36] = system: HT29 colon
[37] = system: SNB-19 CNS
[38] = system: M14 melanoma
[39] = system: HOP-62 NSCLC
[40] = system: U251 CNS
[41] = system: KM12 colon
[42] = system: HCT-116 colon
[43] = system: MCF7 breast
[44] = system: PC-3 prostate
[45] = system: OVCAR-8 ovarian
[46] = system: DU-145 prostate
[47] = system: SN12C renal
[48] = system: RPMI-8226 leukemia
[49] = system: LOX IMVI melanoma
[50] = system: OVCAR-3 ovarian

COc1c(OCCCN2CCOCC2)ccc2c3n(c(=NC(=O)c4cnc(N)nc4)nc12)CCN3
428 nM [middle of 4 runs]: GI50 [19]
448 nM [middle of 4 runs]: TGI [27]
39.4 nM and 40.8 nM and 30.2 nM: TGI [28]
2050 nM and > 10000 nM: TGI [48]
> 100000 nM: TGI [5] | TGI [8] | TGI [15] | TGI [16] | TGI [18] | TGI [19] | TGI [20] | TGI [22] | TGI [25] | TGI [34] | TGI [35] | TGI [36] | TGI [37] | TGI [39] | TGI [40] | TGI [42] | TGI [43] | TGI [44] | TGI [45] | TGI [46] | TGI [47]
7660 nM and 810 nM and 1640 nM: TGI [31]
> 75000 nM and 10800 nM and 7650 nM: TGI [32]
inactive: GI50 [15] 1.68 µM [middle of 4 runs]
814 nM [middle of 4 runs]: TGI [13]
> 75000 nM: TGI [17]
50.4 nM and 33 nM: TGI [21]
297 nM [middle of 4 runs]: GI50 [37]
67.3 nM and 446 nM and 74.5 nM: TGI [23]
469 nM and 391 nM and 438 nM: GI50 [32]
890 nM and 976 nM and 4920 nM: TGI [50]
198 nM and 782 nM: TGI [24]
464 nM [middle of 4 runs]: TGI [4]
664 nM [middle of 4 runs]: TGI [30]
3380 nM and > 10000 nM and 2400 nM: TGI [1]
active: GI50 [2] 138 nM [middle of 4 runs] | GI50 [3] 91.3 nM [middle of 4 runs] | GI50 [4] 48.3 nM [middle of 4 runs] | GI50 [5] 216 nM [middle of 4 runs] | GI50 [6] 228 nM [middle of 4 runs] | GI50 [8] 144 nM [middle of 4 runs] | GI50 [9] 77.4 nM [middle of 4 runs] | GI50 [10] 339 nM [middle of 4 runs] | GI50 [11] 142 nM [middle of 4 runs] | GI50 [12] 22.4 nM and 23.8 nM and 24.5 nM | GI50 [13] 74.8 nM [middle of 4 runs] | GI50 [14] 36.3 nM and 40.9 nM and 28.3 nM | GI50 [16] 31.2 nM [middle of 4 runs] | GI50 [18] 59.9 nM [middle of 4 runs] | GI50 [20] 72.3 nM [middle of 4 runs] | GI50 [21] 7.5 nM and < 12.3 nM and < 10 nM | GI50 [25] 398 nM [middle of 4 runs] | GI50 [26] 315 nM [middle of 4 runs] | GI50 [28] 7.5 nM and 2.58 nM and < 10 nM | GI50 [29] 197 nM [middle of 4 runs] | GI50 [33] 38.1 nM [middle of 4 runs] | GI50 [34] 48.9 nM [middle of 4 runs] | GI50 [35] 39.7 nM [middle of 4 runs] | GI50 [36] 17.7 nM and 24.9 nM and 10.9 nM | GI50 [38] 118 nM [middle of 4 runs] | GI50 [39] 132 nM [middle of 4 runs] | GI50 [41] 368 nM [middle of 4 runs] | GI50 [42] 109 nM [middle of 4 runs] | GI50 [45] 228 nM [middle of 4 runs] | GI50 [47] 88.5 nM [middle of 4 runs] | GI50 [48] 220 nM and 174 nM and 323 nM | GI50 [49] 64.9 nM [middle of 4 runs] | GI50 [50] 36.2 nM and 28.3 nM and 126 nM
1.51 µM [middle of 4 runs]: TGI [6]
40.3 nM [middle of 4 runs]: TGI [7]
